This note sets out measurements from US9249131B2, “Modulators of ATP-binding cassette transporters” (Vertex Pharmaceuticals Incorporated, priority 2003, dated 2016).

This assay concerns the target T1, ΔF508-CFTR (Homo sapiens, UniProt P13569, DEL508-508).
T1 construct: expressed in transfected cells; host or cells: NIH3T3 mouse fibroblasts stably expressing ΔF508-CFTR for the optical, whole-cell and single-channel assays; Fisher rat epithelial (FRT) cells for Ussing chamber follow-up
Description: Assays for ΔF508-CFTR correction and potentiator properties (membrane potential optical and electrophysiological methods). It is filed as cell-based. Conditions: CFTR modulation; for % Activity: % Efficacy; for EC50: tested using the above methods. Summed up: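 NIH3T3 mouse fibroblasts stably expressing ΔF508-CFTR were used, with membrane potential read by DiSBAC2(3)/CC2-DMPE FRET on VIPR. Correctors: 16 h compound exposure at 37 °C, then activation with forskolin plus genistein in Cl⁻-free medium. Potentiators: cells held 24 h at 27 °C, compound added in Cl⁻-free medium, 2-10 μM forskolin 22 s later (final Cl⁻ 28 mM).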

Where only a bound is given, the exact number is not on record here.

T1 sequence (P13569 with tags, fused parts or gaps DEL508-508): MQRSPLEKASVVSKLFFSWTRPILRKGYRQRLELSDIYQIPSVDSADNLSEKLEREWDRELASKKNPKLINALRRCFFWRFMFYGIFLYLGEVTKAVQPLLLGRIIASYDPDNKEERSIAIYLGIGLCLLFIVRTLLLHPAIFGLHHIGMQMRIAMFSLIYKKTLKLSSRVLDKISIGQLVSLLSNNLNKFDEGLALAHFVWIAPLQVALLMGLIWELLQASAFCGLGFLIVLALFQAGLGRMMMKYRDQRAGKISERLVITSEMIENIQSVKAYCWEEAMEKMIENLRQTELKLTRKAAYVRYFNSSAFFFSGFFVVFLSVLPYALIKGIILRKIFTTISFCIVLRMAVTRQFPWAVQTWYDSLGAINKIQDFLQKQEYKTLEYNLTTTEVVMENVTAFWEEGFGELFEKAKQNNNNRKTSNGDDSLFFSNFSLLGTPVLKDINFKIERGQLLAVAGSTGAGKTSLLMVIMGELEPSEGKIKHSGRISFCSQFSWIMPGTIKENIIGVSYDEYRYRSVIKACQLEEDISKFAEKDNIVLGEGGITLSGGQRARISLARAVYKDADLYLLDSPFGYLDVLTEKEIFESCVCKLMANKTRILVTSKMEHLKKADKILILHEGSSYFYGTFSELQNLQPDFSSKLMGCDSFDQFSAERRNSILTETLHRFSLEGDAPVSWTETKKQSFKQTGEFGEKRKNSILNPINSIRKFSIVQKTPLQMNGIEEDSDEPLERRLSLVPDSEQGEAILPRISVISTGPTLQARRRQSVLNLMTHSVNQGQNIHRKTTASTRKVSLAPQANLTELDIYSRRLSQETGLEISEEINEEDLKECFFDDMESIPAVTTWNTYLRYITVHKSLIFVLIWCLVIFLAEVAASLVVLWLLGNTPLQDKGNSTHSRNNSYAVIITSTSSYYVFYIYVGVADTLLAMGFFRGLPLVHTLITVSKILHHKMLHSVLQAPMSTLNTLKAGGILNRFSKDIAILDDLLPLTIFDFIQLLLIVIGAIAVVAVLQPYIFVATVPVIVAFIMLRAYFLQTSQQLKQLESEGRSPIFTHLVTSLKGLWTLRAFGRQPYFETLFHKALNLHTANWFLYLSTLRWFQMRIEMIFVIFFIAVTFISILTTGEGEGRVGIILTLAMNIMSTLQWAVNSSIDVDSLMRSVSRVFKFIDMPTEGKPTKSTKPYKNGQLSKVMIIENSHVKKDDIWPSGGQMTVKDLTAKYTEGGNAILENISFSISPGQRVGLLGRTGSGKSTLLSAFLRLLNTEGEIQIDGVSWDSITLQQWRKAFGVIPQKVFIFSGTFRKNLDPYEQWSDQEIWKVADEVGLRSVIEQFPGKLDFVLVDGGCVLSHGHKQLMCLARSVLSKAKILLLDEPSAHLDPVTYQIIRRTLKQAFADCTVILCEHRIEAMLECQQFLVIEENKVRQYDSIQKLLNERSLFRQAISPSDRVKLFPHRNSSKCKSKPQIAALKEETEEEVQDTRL

`CCOC(=O)Cc1csc(NC(=O)C(c2ccccc2)c2ccccc2)n1` [compound 281]: the “% Activity” value was “++ (“++” means between 25% to 100%)” and the half-maximal effective concentration (EC50) (as a rule, the concentration that produces a half-maximal response) fell in the range of 10 to 25 µM.
As for `COc1ncccc1Cc1cnc(NC(=O)C(c2ccccc2)c2ccccc2)s1` [compound 282], the “% Activity” value is “++ (“++” means between 25% to 100%)” and the EC50 was less than 10 µM.
For `CCC(C(=O)Nc1ncc(Cc2cccnc2OC)s1)c1ccccc1` (stereo not drawn) [compound 283], the “% Activity” value was “++ (“++” means between 25% to 100%)” and the EC50 was less than 10 µM.
Regarding `CCC(C(=O)Nc1ncc(Cc2cccc(OC)c2)s1)c1ccccc1` (stereo not drawn) [compound 284], the “% Activity” value is reported as “++ (“++” means between 25% to 100%)” and the concentration for a half-maximal effect (EC50) is less than 10 µM.
With `CCC(C(=O)Nc1ncc(Cc2cc(F)ccc2OC)s1)c1ccccc1` (stereo not drawn) [compound 285], the “% Activity” value is “++ (“++” means between 25% to 100%)” and the EC50 was less than 10 µM.
On to `CCC(C(=O)Nc1ncc(Cc2ccc(OC)cc2)s1)c1ccccc1` (stereo not drawn) [compound 286], for which the “% Activity” value was “++ (“++” means between 25% to 100%)” and the EC50 was less than 10 µM.
As for `CCCc1nc(NC(=O)C(c2ccccc2)c2ccccc2)sc1C(=O)OCC` [compound 287], the “% Activity” value was “++ (“++” means between 25% to 100%)” and the 50% effective concentration (EC50) is less than 10 µM.
For the compound `CCCc1nc(NC(=O)C(CC)c2ccccc2)sc1C(=O)OCC` (stereo not drawn) [compound 288], the “% Activity” value is listed as “++ (“++” means between 25% to 100%)” and the 50% effective concentration (EC50) was less than 10 µM.
In the case of `CCC(C(=O)Nc1nc2c(s1)C(=O)CCC2)c1ccccc1` (stereo not drawn) [compound 289], the “% Activity” value is reported as “++ (“++” means between 25% to 100%)” and the EC50 was in the range of 25 to 60 µM.
